These are literature values, as cited in patent US7354953B2, “Time-release compositions for delivery of [Cr3O(carboxylate)6(H2O)3]+” (University of Alabama, priority 2006, dated 2008).

The target of data set [1] is insulin receptor (Homo sapiens, UniProt P06213).
Data set [2] relates to healthy and model type 2 diabetic rats.
Data set [3] concerns colorectal cancer in rat.
For data set [4] the following is noted: in vivo.
Data set [5] has as its system DNA.
Data set [6] concerns rats. The settings on record: for effect on body mass, percentage lean or fat content, tissue size, blood variables: rats on regular diets.
Data set [7] has as its system adult-onset diabetic patients.
The test system of data set [8] is chromosome.
Setting [9] is: healthy and model type 2 diabetic rats.

Chain of insulin receptor (P06213 763-1382 limits assumed, species assumed): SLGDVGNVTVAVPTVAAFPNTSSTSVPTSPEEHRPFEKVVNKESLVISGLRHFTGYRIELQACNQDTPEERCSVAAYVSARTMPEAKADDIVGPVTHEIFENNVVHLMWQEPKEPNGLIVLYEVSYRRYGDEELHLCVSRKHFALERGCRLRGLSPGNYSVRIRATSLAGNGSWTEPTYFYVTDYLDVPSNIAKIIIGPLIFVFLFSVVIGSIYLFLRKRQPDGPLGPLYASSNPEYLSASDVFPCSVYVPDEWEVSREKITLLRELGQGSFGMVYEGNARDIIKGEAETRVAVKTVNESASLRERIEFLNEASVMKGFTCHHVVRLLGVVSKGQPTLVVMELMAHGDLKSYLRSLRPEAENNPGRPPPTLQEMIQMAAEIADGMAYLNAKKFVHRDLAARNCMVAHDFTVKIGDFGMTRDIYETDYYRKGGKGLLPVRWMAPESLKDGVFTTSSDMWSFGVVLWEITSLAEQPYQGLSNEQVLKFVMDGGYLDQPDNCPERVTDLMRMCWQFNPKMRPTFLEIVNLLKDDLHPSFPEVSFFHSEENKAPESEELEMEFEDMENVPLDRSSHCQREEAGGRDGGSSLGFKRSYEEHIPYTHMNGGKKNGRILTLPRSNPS
Chain of insulin receptor (P06213 28-758 partner limits assumed, species assumed): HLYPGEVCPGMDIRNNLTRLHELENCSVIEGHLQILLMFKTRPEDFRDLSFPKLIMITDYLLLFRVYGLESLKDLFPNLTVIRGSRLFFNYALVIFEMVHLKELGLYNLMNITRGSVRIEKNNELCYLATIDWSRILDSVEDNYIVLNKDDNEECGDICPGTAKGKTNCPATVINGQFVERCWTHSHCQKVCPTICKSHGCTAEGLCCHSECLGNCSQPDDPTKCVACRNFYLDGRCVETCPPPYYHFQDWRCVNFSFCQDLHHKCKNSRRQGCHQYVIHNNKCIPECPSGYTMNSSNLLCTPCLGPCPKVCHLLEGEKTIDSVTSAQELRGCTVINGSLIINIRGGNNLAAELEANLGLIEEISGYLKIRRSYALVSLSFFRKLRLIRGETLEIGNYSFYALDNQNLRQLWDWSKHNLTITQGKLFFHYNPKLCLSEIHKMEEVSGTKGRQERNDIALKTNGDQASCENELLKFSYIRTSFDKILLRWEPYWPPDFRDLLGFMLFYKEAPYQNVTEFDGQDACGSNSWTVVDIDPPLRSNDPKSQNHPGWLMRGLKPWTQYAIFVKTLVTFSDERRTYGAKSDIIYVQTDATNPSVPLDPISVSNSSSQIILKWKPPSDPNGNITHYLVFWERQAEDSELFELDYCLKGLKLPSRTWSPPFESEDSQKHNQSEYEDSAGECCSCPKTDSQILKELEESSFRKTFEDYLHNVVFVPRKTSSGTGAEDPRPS

For the compound `CCC(=O)[O-].CCC(=O)[O-].CCC(=O)[O-].CCC(=O)[O-].CCC(=O)[O-].CCC(=O)[O-].O.O.O.[Cr+3].[Cr+3].[Cr+3].[O-2]` [Complex 1, [[Cr3O(O2CCH2CH3)6(H2O)3]^+], in data set [1], the “ability to stimulate insulin receptor kinase activity” value is listed as “mimic the ability of LMWCr to stimulate insulin receptor kinase activity”. In data set [2] (diabetes models), the glycated hemoglobin entry is “reduce glycated hemoglobin”. Also, in data set [2] (setting [9]), the “blood plasma cholesterol and triglycerides levels” value was “improve”; the insulin sensitivity entry is reported as “increase insulin sensitivity”. Further, the “onset of colorectal cancer” value in data set [3] is given as “reduce the onset of colorectal cancer”. In addition, in data set [4], the “absorption (rate and efficiency, in words)” value is “absorbed very rapidly and very efficiently”; the absorption efficiency is 40-60%. In addition, in data set [5], the DNA cleavage result is recorded as “not to lead to DNA cleavage”.
On to `[Cl][Cr]([Cl])[Cl]` [chromium chloride], for which, in data set [6], the “effect on body mass, percentage lean or fat content, tissue size, blood variables” value is “no effect”.
“chromium(III) tris(picolinate) [Cr(pic)3]”: the insulin requirements result in data set [7] (138 adult-onset diabetic patients) was “reduced insulin requirements”. Besides, in data set [7] (180 adult-onset diabetic patients), the glycemic control result is on record as “improved glycemic control”. The absorption efficiency in data set [4] is recorded as 0.5-2%. Besides, in data set [6], the “effect on body mass, percentage lean or fat content, tissue size, blood variables” value is “no effect”. Further, the acute toxic effects entry in data set [6] (rats, up to 1500 μg/kg diet for up to 24 weeks) is on record as “no acute toxic effects”. Moreover, in data set [8], the chromosome damage entry is “cause chromosome damage”.
